Measured values as given in patent publication US20240114939A1, “HYDROXY- AND METHOXY-SUBSTITUTED FLAVONES AND THEIR USE” (Firmenich SA, priority 2021, published 2024).

Legend:
human sensory panel [1] = test: Human sensory panel, bitter and astringent taste versus reference water solution with 10 ppm mixture of Limonin, Naringin and Nomilin; type: in vivo; settings: 20 trained panelists, scale −5 (strong masking) to 5 (strong enhancing); for Astringency: 0 = reference water solution; for Bitterness: 0 = reference water solution with 10 ppm mixture of Limonin, Naringin and Nomilin
From the text: (§1) Certain HMF compounds were tasted by a human sensory panel to assess their ability to reduce bitterness, reduce astringency, and enhance sweetness. The panel consisted of 20 trained panelists evaluating the samples at 1 ppm, 5 ppm, or 10 ppm for taste properties (sweet, bitter, or astringent) on a scale of −5 to 5 (−5 denoted strong masking effect and 5 denoted strong enhancing effect, 0 being the intensity of a reference water solution containing 4% sucrose or 10 ppm mixture of Limonin, Naringin and Nomilin) The results are set forth in Table 2. The composition numberings (“Cpn”) are set forth above in Example 1.

human sensory panel [2] = test: Human sensory panel, sweet taste versus reference water solution containing 4% sucrose; type: in vivo; settings: 20 trained panelists, scale −5 (strong masking) to 5 (strong enhancing), 0 = reference water solution containing 4% sucrose
From the text: as §1

panel of 8 experts = test: Expert panel, bitter and astringent taste in coffee; type: in vivo, human; settings: 10 ppm, scale −5 (strong masking) to 5 (strong enhancing), 0 = reference application in coffee
From the text: A panel consisted in 8 experts evaluating the samples at 10 ppm for taste properties (bitter and astringent) on a scale of −5 to 5 (−5 denoted strong masking effect and 5 denoted strong enhancing effect, 0 being the intensity of a reference application in coffee).

SMILES | Astringency (human sensory panel [1]; 10 ppm) | Bitterness (human sensory panel [1]; 10 ppm) | Sweetness (human sensory panel [2]; 10 ppm) | also measured
COc1cc(-c2cc(=O)c3c(OC)c(OC)c(OC)c(OC)c3o2)ccc1O [Cpd 103, 4′-hydroxy-5,6,7,8,3′-pentamethoxyflavone] | −0.67 | −1.17 | 0.17 | 
COc1cc2oc(-c3ccc(O)cc3)cc(=O)c2c(OC)c1OC [Cpd 104, 4′-Hydroxy-5,6,7-trimethoxyflavone] | −0.33 | −1.00 | 0.08 | 
COc1ccc(-c2cc(=O)c3c(OC)c(OC)c(OC)cc3o2)cc1O [Cpd 107, 3′-hydroxy-5,6,7,4′-tetramethoxyflavone] |  |  |  | Astringency (human sensory panel [1]; 1 ppm): 0.00; Bitterness (human sensory panel [1]; 1 ppm): 0.08; Sweetness (human sensory panel [2]; 1 ppm): 0.50
COc1cc(-c2cc(=O)c3c(OC)c(OC)c(OC)cc3o2)ccc1O [Cpd 101, 4′-hydroxy-5,6,7,3′-tetramethoxyflavone] | −0.92 | −0.92 | 0.58 | 
COc1c(OC)c(OC)c2c(=O)cc(-c3ccc(O)cc3)oc2c1OC [Cpd 106, 4′-hydroxy-5,6,7,8-tetramethoxyflavone] |  |  |  | Astringency (human sensory panel [1]; 5 ppm): −0.30; Bitterness (human sensory panel [1]; 5 ppm): −2.00; Sweetness (human sensory panel [2]; 5 ppm): 0.25
COc1ccc(-c2cc(=O)c3c(OC)c(OC)c(OC)c(OC)c3o2)cc1O [Cpd 109, 3′-hydroxy-5,6,7,8,4′-pentamethoxyflavone] | −1.80 | −3.51 | 0.03 | Astringency (panel of 8 experts): 0.60; Bitterness (panel of 8 experts): −1.80
